# Measured values published in patent US20130231480A1, “SEQUENCE SPECIFIC DOUBLE-STRANDED DNA/RNA BINDING COMPOUNDS AND USES THEREOF” (GENEARREST LTD, priority 2010, published 2013).
# Experiments:
# 25 mer A-T-DNA [1] = assay: TM measurement by RT-PCR (HRM/SYBR green), A-T DNA; assay type: binding; conditions: for shift in TM of A-T DNA: (d/dT) fluorescence (465-510), compared to the control without addition; for TM of 25 mer A-T-DNA in the treated well: control wells 56.1-57.1° C.
# Protocol: (§1) The primers listed in Table 4 were purchased from Sigma Aldrich (Israel). Primers number 1 and 3 are complementary and annealed to form CG/GC double-stranded DNA fragment, and primers number 5 and 7 are complementary and annealed to form AT double-stranded DNA fragment. The DNA complementary oligomers were hybridized in a medium salt buffer containing 10 mM NaCl, 10 mM sodium phosphate and 0.1 mM EDTA, pH 7.0. The samples were heated to 90° C. for 5 min, slowly cooled to 20° C. and left at 4° (1 until used for TM measurements with RT-PCR.
# (§2) According to this method, 5 μl of a selected double-stranded DNA is incubated with a 5 μl solution of a selected compound at RT for 5 min; 10 μl HRM/SYB (high resolution melting/syber green I) (X2) are then added; and the TM is then measured. The run program for TM measurement is as following: keep temperature of final solution at 25° C. for 5 min, raise temperature up to 99° C. with a rate of 0.1° C./sec, and then cool to 37° C.
# (§3) In a further study, the effect of AH-11 as well as three additional similar compounds having the same heterocyclic (pyridine) core on the TM of DNA double-stranded sequences consisting of A-T or C-G base pairs only was tested by RT-PCR as described in Materials and Methods. The additional compounds tested are 4-amino-N-(6-aminopyridin-2-yl)butanamide, N,N′-(pyridine-2,6-diyl)bis(3-aminopropanamide), and N,N′-(pyridine-2,6-diyl)bis(4-aminobutanamide), herein identified […] and AH-14, respectively (chemical structures are shown in Scheme 5). […] Compounds AH-11, AH-12 and AH-13 increased the TM of 25 mer A-T-DNA by 4.2° C., 5.7° C. and 9.9° C., respectively. In all four cases, no effect was observed on the TM of 25 mer C-G-DNA (the TM shift range between 0.3 and 0.8° C.).
# (§4) In this study, the ability of monomer units M1-6a, designed to be specific for A-T base pairs only, and M4-4a, designed to be specific for C-G base pairs only, to effectively and selectively bind to DNA double-stranded sequences consisting of A-T or C-G base pairs only was tested using the RT-PCR method as described in Material and Methods. Nevertheless, in order to neutralize a possible influence of the carboxylic groups of these monomers on the specificity and selectivity of the monomers, the compounds practically used were 3-(2-amino-9-(2-((2-(tert-butoxycarbonylamino)ethyl)(2-ethoxy-2-oxoethyl)amino)-2-oxoethyl)-9H-purin-6-ylamino)-N,N,N-trimethylpropan-1-aminium and 3-(9-(2-((2-(tert-butoxycarbonylamino)ethyl)(2-ethoxy-2-oxoethyl)amino)-2-oxoethyl)-2-oxo-2,9-dihydro-1H-purin-6-ylamino)-N,N,N-trimethylpropan-1-aminium, which are analogs of these monomer units M1-6a and M4-4a, respectively, in which the carboxyl groups are protected with ethyl (see Scheme 10 and 17).
# 25 mer C-G-DNA [2] = assay: TM measurement by RT-PCR (HRM/SYBR green), C-G DNA; assay type: binding; conditions: for shift in TM of C-G DNA: (d/dT) fluorescence (465-510), compared to the control without addition; for TM of 25 mer C-G-DNA in the treated well: control wells 84.3-86° C.
# Protocol: as §1, §2, §3, §4
# The biological activity of the polymers synthesized, i.e., their ability to specifically interact with specific fragments of double-stranded DNA, was tested using the RT-PCR method, as described in Materials and Methods.
# 25 mer C-G-DNA [3] = assay: TM of treated duplex DNA by UV spectra at 260 nm, C-G DNA; assay type: binding; conditions: UV 260 nm; incubated at 37° C. for 36 hours
# Protocol: (§5) Duplex DNA (dsDNA-1,2) sequences are formed by incubating a solution of single-strand DNA-1 and single-strand DNA-2 (1:1) at 90° C. for 5 min, and slowly cooling down to RT for 1-2 hours. Treated Duplex DNA (dsDNA-1,2 bonded to a triplex forming molecule of the invention) is formed by incubating a solution of triplex forming molecule (TFM) of the invention and dsDNA-1,2 (1:1) at 37° C. for 36 hours.
# (§6) The melting temperature (TM), i.e., the temperature at which a DNA double helix dissociates into single strands, measurements of Duplex DNA or Treated Duplex DNA are carried out using quartz cuvettes with an optical path length of 1 cm on a Cray 300 UV/vis spectrophotometer interfaced with a computer for data collection and analysis. The temperature is increased from 30° C. to 98° C. at the rate of 1° C./min, and the TM is determined by plotting the first derivative of the absorbance at 260 nm vs. temperature profile. TM is defined as the temperature at which half the molecules are single-stranded.
# (§7) In order to test the effect of AH-11, designed to be specific for A-T base pair, on the TM of DNA double-stranded sequences consisting of A-T or C-G base pairs only, two solutions each containing one of the aforesaid sequences were incubated with a solution containing the compound AH-11 at 37° C. for 36 hours, and treated double-stranded DNA were formed. […]
# 25 mer A-T-DNA [4] = assay: TM of treated duplex DNA by UV spectra at 260 nm, A-T DNA; assay type: binding; conditions: UV 260 nm; incubated at 37° C. for 36 hours; TM without compound 53° C.
# Protocol: as §5, §6, §7
# [5] = system: restriction enzyme (satI); assay: Prevention of restriction enzyme digestion of a PCR product (agarose gel); assay type: biochemical; conditions: for preventing restriction enzyme satI from digesting the DNA fragment: lanes 5+5B, 5+7B, 10+7B compared with cut 5 and cut 10 without AH-13
# From the text: This can be seen by comparing lanes “5+5B”, “5+7B” and “[…]” with “cut 5” and “cut 10”, wherein no AH-13 was used.
# 25 mer A-T-DNA [6] = assay: TM measurement by RT-PCR (HRM/SYBR green), A-T DNA; assay type: binding; conditions: incubation time from 5 min to 60 or 100 min
compound,measurement,setting,value
"3-(2-amino-9-(2-((2-(tert-butoxycarbonylamino)ethyl)(2-ethoxy-2-oxoethyl)amino)-2-oxoethyl)-9H-purin-6-ylamino)-N,N,N-trimethylpropan-1-aminium [analog of M1-6a]",shift in TM of A-T DNA,25 mer A-T-DNA [1],6.9 °C
same,TM of 25 mer A-T-DNA in the treated well,25 mer A-T-DNA [1],63 °C
same,effect on the TM of 25 mer C-G-DNA,25 mer C-G-DNA [2],did not affect
same,shift in TM of C-G DNA,25 mer C-G-DNA [2],< 1.0 °C
"3-(9-(2-((2-(tert-butoxycarbonylamino)ethyl)(2-ethoxy-2-oxoethyl)amino)-2-oxoethyl)-2-oxo-2,9-dihydro-1H-purin-6-ylamino)-N,N,N-trimethylpropan-1-aminium [analog of M4-4a]",effect on the TM of 25 mer A-T-DNA,25 mer A-T-DNA [1],did not affect
same,shift in TM of A-T DNA,25 mer A-T-DNA [1],0.3 °C
same,shift in TM of C-G DNA,25 mer C-G-DNA [2],5.6 °C
same,TM of 25 mer C-G-DNA in the treated well,25 mer C-G-DNA [2],90.1 °C
"NCCC(=O)Nc1cccc(N)n1 [AH-11, 3-amino-N-(6-aminopyridin-2-yl)propanamide]",shift in TM of A-T DNA,25 mer A-T-DNA [1],4.2 °C
same,effect on the TM of 25 mer C-G-DNA,25 mer C-G-DNA [3],did not affect at all
same,TM of 25 mer A-T-DNA after treatment,25 mer A-T-DNA [4],85 °C
"NCCCC(=O)Nc1cccc(N)n1 [AH-12, 4-amino-N-(6-aminopyridin-2-yl)butanamide]",shift in TM of A-T DNA,25 mer A-T-DNA [1],5.7 °C
"NCCC(=O)Nc1cccc(NC(=O)CCN)n1 [AH-13, N,N′-(pyridine-2,6-diyl)bis(3-aminopropanamide)]",shift in TM of A-T DNA,25 mer A-T-DNA [1],9.9 °C
same,interference with satI enzyme activity in lane 10+5B,"[5]; 10 μl PCR product + 5 μl AH-13, both cut and uncut DNA present",not sufficient to completely interfere with the enzyme activity
same,preventing restriction enzyme satI from digesting the DNA fragment,[5],capable in a concentration dependent manner of preventing a restriction enzyme (satI)
same,preventing restriction enzyme satI from digesting the DNA fragment,[5]; listed as AH-1,"capable of specifically interfering with the activity of the restriction enzyme satI, in a concentration dependent manner"
"NCCCC(=O)Nc1cccc(NC(=O)CCCN)n1 [AH-14, N,N′-(pyridine-2,6-diyl)bis(4-aminobutanamide)]",effect on the TM of 25 mer A-T-DNA,25 mer A-T-DNA [1],most effective compound
same,shift in TM of A-T DNA,25 mer A-T-DNA [1],11.7 °C
same,shift in TM of C-G DNA,25 mer C-G-DNA [2],0.8 °C
"CC(C)(C)OC(=O)NCCN(CC(=O)O)C(=O)Cn1cnc2c(NCCC[N+](C)(C)C)nc(N)nc21 [M1-6a, 3-(2-amino-9-(2-((2-(tert-butoxycarbonylamino)ethyl)(carboxymethyl)amino)-2-oxoethyl)-9H-purin-6-ylamino)-N,N,N-trimethylpropan-1-aminium]",TM of treated 25 mer A-T-DNA upon increasing the incubation time,25 mer A-T-DNA [6],No difference
same,TM of 25 mer A-T-DNA in the treated well,25 mer A-T-DNA [1],63 °C
same,effect on the TM of 25 mer C-G-DNA,25 mer C-G-DNA [2],did not affect at all
same,TM of 25 mer C-G-DNA in the treated well,25 mer C-G-DNA [2],85.1 °C
"CC(C)(C)OC(=O)NCCN(CC(=O)O)C(=O)Cn1cnc2c(NCCC[N+](C)(C)C)[nH]c(=O)nc21 [M4-4a, 3-(9-(2-((2-(tert-butoxycarbonylamino)ethyl)(carboxymethyl)amino)-2-oxoethyl)-2-oxo-2,9-dihydro-1H-purin-6-ylamino)-N,N,N-trimethylpropan-1-aminium]",effect on the TM of 25 mer A-T-DNA,25 mer A-T-DNA [1],did not affect at all
same,TM of 25 mer A-T-DNA in the treated well,25 mer A-T-DNA [1],57.4 °C
same,TM of 25 mer C-G-DNA in the treated well,25 mer C-G-DNA [2],90.1 °C
